In patent publication US12502362B2, “Inhibitors of nucleotidyltransferase superfamily enzymes as antibiotics” (priority 2017, dated 2025):
In brackets after ≈: the same amount, converted by molar mass. Where a name gives a salt, the structure may show the parent alone. Read-outs that look alike come from different tables or passages of the source.

Experiments:
E. coli (ATCC 35218) = test: microbe, parasite or virus in culture; format: cell-based; details: for MIC80: Escherichia coli, ATCC35218, read-out: MIC80 E. coli, E. coli ATCC 35218; for MIC80 E. coli: E. coli ATCC 35218
Description: (§1) To further characterize the compounds, the minimal inhibitory concentration (MIC80) were determined for selected compounds. MIC80 is defined as the compound concentration at which ≥80% bacterial growth is inhibited compare to untreated controls. Meanwhile, for the selected compounds, cytotoxicity assays (CC50) were performed on a HepG2-derived hepatoblastoma cell line (HEPDES19). […] For CC50 evaluation, soluble tetrazolium dye (MTS) was used to measure mitochondrial toxicity in a human hepatoblastoma cell line (18). The bacteria (E. coli, S. saprophyticus and A. baumannii) used in MIC80 measurements were the same as that in the primary screening, but for Staphylococcus, S. aureus is used primarily because it is a common pathogen in Staphylococcaeae family, while S. saprophyticus is part of the normal human flora.

[1] = Cytotoxicity assay (CC50), MTS; format: cell-based, human; details: human, HEPDES19 cells
Description: as §1

[2] = test system: HepG2-derived hepatoblastoma cell line (HEPDES19); test: Cytotoxicity assay (CC50), MTS; format: cell-based, human; details: HEPDES19 cells
Description: as §1

S. aureus (ATCC 29213) = test: MIC80 on S. aureus; format: cell-based, Staphylococcus aureus; details: ≥80% growth inhibition; for MIC80: Staphylococcus aureus, ATCC 29213 / MSSA, read-out: MIC80 S. aureus, S. aureus ATCC 29213 (MSSA); for MIC80 S. aureus: S. aureus ATCC 29213 (MSSA)
Description: as §1

[3] = test system: S. aureus and/or S. saprophyticus; test: MIC80 on S. aureus and/or S. saprophyticus; format: cell-based; details: read-out: MIC80 against S. aureus and/or S. saprophyticus
Description: as §1, with “(HEPDES19). […] For the MIC80 measurements, a 1.5 fold dilution series of the compounds was prepared in Mueller-Hinton II broth.” for “(HEPDES19).”, “flora. S. aureus (ATCC 29213) is methicillin-sensitive Staphylococcus aureus (MSSA) strain and it was used as a model strain to measure the MIC80.” for “flora.”

[4] = test system: Staphylococcus saprophyticus (ATCC BAA-750); test: MIC80 on S. saprophyticus; format: cell-based; details: S. saprophyticus ATCC BAA-750, read-out: MIC80 S. sapro
Description: as §1

[5] = test system: Acinetobacter baumannii (Abl, from a patient); test: microbe, parasite or virus in culture; format: cell-based; details: Acinetobacter baumannii, read-out: MIC80 A. baumannii, A. baumannii Ab1, MDR patient isolate
Description: as §1

[6] = HepG2-derived hepatoblastoma cell line (HEPDES19)
[7] = Staphylococcus saprophyticus, ATCCBAA750

| Structure (SMILES) | MIC80 (E. coli (ATCC 35218)) [µM] | CC50 [1, 6] [µM] | CC50 [2] [µM] | MIC80 (S. aureus (ATCC 29213)) [µM] | MIC80 [3] [µM] | MIC80 [4, 7] [µM] | MIC80 [5] [µM] | CC50 [1] [µM] | MIC80 E. coli (E. coli (ATCC 35218)) [µM] | MIC80 S. aureus (S. aureus (ATCC 29213)) [µM] | MIC80 [4] [µM] |
| --- | --- | --- | --- | --- | --- | --- | --- | --- | --- | --- | --- |
| O=c1ccc2ccccc2n1O [Compound 43] | 111 (≈ 17.9 µg/mL) | > 50 | ≥ 100 | 13.2 (≈ 2.13 µg/mL) | < 20 | 11.4 (≈ 1.84 µg/mL) |  |  |  |  |  |
| CC(C)c1ccc(O)c(=O)c(O)c1 [Compound 46] | 44.4 (≈ 8 µg/mL) |  |  | 19.8 (≈ 3.57 µg/mL) | < 20 | 29.6 (≈ 5.33 µg/mL) | 100 (≈ 18 µg/mL) | < 50 |  |  |  |
| O=C(Oc1cccccc1=O)c1ccc([N+](=O)[O-])cc1 [Compound 51] | 167 (≈ 45.2 µg/mL) | > 50 | 56 | 16.5 (≈ 4.48 µg/mL) | < 20 | 15.1 (≈ 4.1 µg/mL) |  |  |  |  |  |
| O=c1cccccc1O [Compound 53] |  |  | ≥ 100 |  |  |  |  |  | >100 | 11.7 (≈ 1.43 µg/mL) | 8.8 (≈ 1.07 µg/mL) |
| O=c1ccccc(Br)c1O [Compound 54] | 70.4 (≈ 14.2 µg/mL) | > 50 |  | 16.1 (≈ 3.24 µg/mL) | < 20 | 14.9 (≈ 3 µg/mL) | 44.4 (≈ 8.93 µg/mL) |  |  |  |  |
| O=C(Oc1cccccc1=O)c1ccccc1 [Compound 62] | 111 (≈ 25.1 µg/mL) | > 50 |  | 19.8 (≈ 4.48 µg/mL) | < 20 | 10.3 (≈ 2.33 µg/mL) | 83.4 (≈ 18.9 µg/mL) |  |  |  |  |
| CC(C)C(CO)n1cc(C(=O)O)c(=O)c2cc(Cc3cccc(Cl)c3F)c(F)cc21 (stereo not shown) [Compound 75] |  |  | 28 |  |  |  |  |  | 100 (≈ 43.6 µg/mL) | 8.8 (≈ 3.84 µg/mL) | 15.1 (≈ 6.58 µg/mL) |
| Cc1cc(O)c(=O)c(O)cc1-c1ccc(Br)cc1 [Compound 114] |  | < 50 | 38 | 19.8 (≈ 6.08 µg/mL) | < 20 |  |  |  |  |  |  |
| Cc1cc(O)c(=O)c(O)cc1C(=O)C1CCCCC1 [Compound 120] | 44.4 (≈ 11.6 µg/mL) | < 50 |  | 19.8 (≈ 5.19 µg/mL) | < 20 |  | 83.4 (≈ 21.9 µg/mL) |  |  |  |  |
| CC1=C(C#N)C(O)=NC(=O)/C1=C\c1ccc(-c2ccccc2)o1 [Compound 140] | > 100 | < 50 | 42 | 3.9 (≈ 1.19 µg/mL) | < 20 | 12.7 (≈ 3.86 µg/mL) |  |  |  |  |  |
| O=c1cc(Cc2ccc(Br)cc2)c2cccnc2n1O [Compound 149, 4-[(4-bromophenyl)methyl]-1-hydroxy-1,8-naphthyridin-2-one hydrobromide] | > 100 |  |  |  |  | 2.5 |  |  |  |  |  |
| O=c1cc(-c2ccccc2)c2cccnc2n1O [Compound 154, 1-hydroxy-4-phenyl-1,8-naphthyridin-2-one] | < 30 | 4 |  |  | < 20 | 17.8 (≈ 4.24 µg/mL) |  |  | 21.9 (≈ 5.22 µg/mL) |  |  |
| O=c1c(O)ccc(-c2ccccc2)cc1O [Compound 262] | 66.7 (≈ 14.3 µg/mL) | > 50 | 57 | 19.8 (≈ 4.24 µg/mL) | < 20 | 19.8 (≈ 4.24 µg/mL) | 100 (≈ 21.4 µg/mL) |  |  |  |  |
